Reference: patent US8394971B2, “Indole derivatives as selective androgen receptor modulators (SARMS)” (Janssen Pharmaceutica N.V., priority 2004, dated 2013)
Several values for one entry are separate records, joined by “and”; a condition that tells them apart may be missing. Equal entries are not always repeated.

How the values were obtained:
[1] = molecular target: T1, androgen receptor (adenovirus AdEasy+rAR in COS-7 cells) (Rattus norvegicus, UniProt P15207); assay: COS-7 Whole-Cell Androgen Receptor Binding Assay, Adenovirus Transduction; details: COS binding; 3000 nM unless otherwise noted
T1 construct: expressed in transfected cells
T1 sequence (P15207 1-902): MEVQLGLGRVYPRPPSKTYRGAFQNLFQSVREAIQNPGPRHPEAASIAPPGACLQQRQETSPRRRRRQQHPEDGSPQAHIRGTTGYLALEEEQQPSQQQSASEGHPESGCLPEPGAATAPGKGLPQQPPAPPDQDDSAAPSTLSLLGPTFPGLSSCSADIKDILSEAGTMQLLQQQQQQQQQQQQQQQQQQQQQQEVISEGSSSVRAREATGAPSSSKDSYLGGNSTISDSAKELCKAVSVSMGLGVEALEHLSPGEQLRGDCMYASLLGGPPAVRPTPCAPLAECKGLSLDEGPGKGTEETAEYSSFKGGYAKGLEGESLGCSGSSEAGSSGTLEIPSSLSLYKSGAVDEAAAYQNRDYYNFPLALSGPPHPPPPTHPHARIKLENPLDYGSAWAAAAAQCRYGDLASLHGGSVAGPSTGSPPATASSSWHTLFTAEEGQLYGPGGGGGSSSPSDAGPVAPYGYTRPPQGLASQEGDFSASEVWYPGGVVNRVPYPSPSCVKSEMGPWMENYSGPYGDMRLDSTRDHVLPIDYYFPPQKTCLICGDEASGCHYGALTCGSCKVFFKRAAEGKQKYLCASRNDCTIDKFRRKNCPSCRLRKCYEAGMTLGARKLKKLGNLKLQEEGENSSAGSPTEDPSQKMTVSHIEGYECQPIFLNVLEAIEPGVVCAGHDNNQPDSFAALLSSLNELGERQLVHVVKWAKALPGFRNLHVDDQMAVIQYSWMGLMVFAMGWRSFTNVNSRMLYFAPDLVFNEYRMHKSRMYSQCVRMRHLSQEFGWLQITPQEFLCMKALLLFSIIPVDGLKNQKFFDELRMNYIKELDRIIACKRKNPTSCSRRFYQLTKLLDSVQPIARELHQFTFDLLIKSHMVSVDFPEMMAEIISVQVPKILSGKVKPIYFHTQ
Protocol: COS-7 cells were plated in 96-well plates at 20,000 cells per well, in a solution of DMEM/F12 (GIBCO) containing 10% (v/v) charcoal-treated fetal bovine serum (Hyclone) and lacking phenol red. The cells were then incubated overnight at 37° C. in 5% (v/v) humidified CO2.
Test compound solutions were prepared by diluting the test compound in 100% (v/v) DMSO, if necessary.
Next, 1 mL of DMEM/F12 lacking phenol red was pipetted into each of the wells of a 2-mL 96-well assay block. […] The wells were carefully mixed by pipette.
In a 15 mL or 50 mL sterile centrifuge tube, a dilution in DMEM/F12 of the adenovirus AdEasy+rAR at a moi of 1:50 per well was prepared.
The medium was removed from the 96-well plates by inversion and the plates dried very briefly, inverted, on a sterile towel. As soon as possible after medium removal, 40 μL of the diluted test compound was added to each well, in duplicate. […] The plates were then incubated for 48 hours at 37° C. in 5% (v/v) humidified CO2.
The medium was removed from the above incubated plates by inversion and dried. Each well was then washed with 0.35 mL of 1×PBS. The PBS was then removed from the plates by inversion and the plates dried.
To each well was then added 50 μL of 0.5% (v/v) Triton X-100 (Sigma) in 1×PBS and the plates placed on a rotary shaker for 5 min. The contents of each well were then transferred to an OptiPlate-96 (Packard) scintillation plate. To each well was then added 0.2 mL of Microscint-20 (Packard) and the wells counted on a TopCount (Packard).
[…] Counts per well were measured and percents of inhibition determined. […] Counts per well were measured and IC50s determined by linear regression.

[2] = molecular target: T2, androgen receptor (adenovirus AdEasy+rAR in L929 cells) (Rattus norvegicus, UniProt P15207); assay: L929 Androgen Receptor Functional Assay, Adenovirus Transduction; type: cell-based; details: for % Activity: L929 agonist testing
T2 construct: expressed in transfected cells
T2 sequence (P15207 1-902): T1 sequence (P15207 1-902)
Protocol: L929 cells were plated in 96-well plates at 20,000 cells per well, in DMEM/F12 (GIBCO) containing 10% (v/v) charcoal-treated fetal bovine serum (Hyclone) and lacking phenol red. The plates were then incubated overnight at 37° C. in 5% (v/v) humidified CO2.
Test compound dilutions were prepared in 100% (v/v) DMSO, if necessary. Each dilution was made to 1250× the final desired assay concentration.
First, 2 mL of DMEM/F12 lacking phenol red was pipetted into the wells of a 2-mL 96-well assay block. Next, 4 μL of the 1250× test compound dilutions were pipetted into each well of the assay block. The mixtures within the well were then carefully mixed by pipette.
In a 15 mL or 50 mL sterile centrifuge tube, a 2.5 nM (2.5×) dilution of R1881 (methyl-trienolone) in DMEM/F12 lacking phenol red was prepared.
In a second 15 mL or 50 mL centrifuge tube a solution containing an equal volume of DMEM to the first and an equal volume of 100% (v/v) DMSO to the volume of R1881 used in the first tube was prepared.
In a 15 mL or 50 mL sterile centrifuge tube, a dilution in DMEM/F12 of the adenovirus AdEasy+rAR at an moi of 1:500 per well was prepared.
The medium was removed from the 96-well plates by inversion and dried, inverted, very briefly. As soon as possible after medium removal, 40 μL of the diluted unlabeled test compound was added to each well, in duplicate. To each well designated for antagonist testing was added 40 μL of the 2.5 nM R1881 dilution to the wells for antagonist testing. To each well designated for agonist testing was added 40 μL of the DMSO dilution. Then 20 μL of the diluted adenovirus were added to all wells. The plates were incubated for 48 hours at 37° C. in 5% (v/v) humidified CO2.
To each well was added 100 μL of Steady-Glo luciferase assay substrate (Promega) and the plates were placed on a rotary shaker for 1 min. The plates were then incubated at room temperature in the dark for one hour. The contents of each well were then transferred to a white microtiter plate (Packard) and read on a Luminoskan Ascent (Thermo Lab Systems).
L929 AR percent activity was determined by testing dilutions of the test compound using a concentration of 3000 nM unless otherwise noted. L929 percent inhibition was determined by testing dilutions of the test compound using a concentration of 3000 nM. […] Luciferase activity per well were measured and EC50s and IC50s determined by linear regression.

[3] = tested on: testosterone-enhanced ventral prostate and seminal vesicle weights in castrated male Sprague Dawley rats; assay: Ventral Prostate and Seminal Vesicle Weight In Vivo Assay; parameters: species or system rat; details: immature castrated rats; once daily for five days, usually orally at 40 mg/kg, with testosterone propionate 2 mg/kg s.c.
In short: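 Immature (~50 g) castrated Sprague Dawley rats dosed once daily for five days with compound (usually oral, 40 mg/kg, cyclodextrin or methylcellulose vehicle) plus testosterone propionate 2 mg/kg s.c. Wet ventral prostate and seminal vesicle weights taken on day six; activity judged by prostate weight or body-weight-adjusted % inhibition.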

| SMILES | inhibition at 3 µM [1] | % Activity ([2]; 3000 nM) | active / inactive (inhibition of testosterone-enhanced prostate weight) [3] | % Inhibition [1] | % Activity ([2]; 3000 nM, 3 µM) | % Activity ([2]; @ 8000 nM) | % Inhibition ([2]; L929 antagonist testing with R1881, 3000 nM) |
| --- | --- | --- | --- | --- | --- | --- | --- |
| CC(O)(CCS(C)(=O)=O)c1cc2cc([N+](=O)[O-])c(C(F)(F)F)cc2[nH]1 (stereo not shown) [compound 49] | 30% | 2% | inactive |  |  |  |  |
| CCSCC(C)(O)c1cc2cc([N+](=O)[O-])c(C(F)(F)F)cc2n1C (racemic) [compound 165] |  |  | active | 69% | 1% |  |  |
| CCSCC(C)(O)c1cc2cc([N+](=O)[O-])cc(C(F)(F)F)c2[nH]1 (stereo not shown) [compound 212] | 86% | −3% | active |  |  |  |  |
| CCSCC(C)(O)c1[nH]c2cc(C(F)(F)F)c(C#N)cc2c1C (single isomer, unassigned) [Compound #234, 2-(2-Ethylsulfanyl-1-hydroxy-1-methyl-ethyl)-3-methyl-6-trifluoromethyl-1H-indole-5-carbonitrile] |  |  | inactive | 71% | −1% |  |  |
| CC(O)(CS(C)(=O)=O)c1cc2cc(Cl)c(C(F)(F)F)cc2[nH]1 (stereo not shown) [compound 138] | 78% | 0% | inactive |  |  |  |  |
| CC(C)SCC(C)(O)c1cc2cc([N+](=O)[O-])c(C(F)(F)F)cc2[nH]1 (stereo not shown) [compound 164] | 68% | 2% | inactive |  |  |  |  |
| CCSCC(C)(O)c1cc2cc([N+](=O)[O-])c(C(F)(F)F)cc2[nH]1 (single isomer, unassigned) [compound 150] |  |  |  | 81% and 74% |  | 0 @ 8000 nM % |  |
| CCSCC(C)(O)c1cc2cc(C#N)c(C(F)(F)F)cc2n1C (stereo not shown) [compound 236] | 83% | 2% | active |  |  |  |  |
| CCC(O)(CS(=O)(=O)CC)c1cc2cc([N+](=O)[O-])c(C(F)(F)F)cc2[nH]1 (stereo not shown) [compound 176] | 75% | 3% | active |  |  |  |  |
| CN(C)c1ccccc1SCC(C)(O)c1cc2cc(Cl)c(C(F)(F)F)cc2[nH]1 (stereo not shown) [compound 127] |  | −5% | inactive | 41% and 74% |  |  |  |
| CCS(=O)(=O)CC(C)(O)c1cc2cc(C#N)c(C(F)(F)F)cc2[nH]1 (single isomer, unassigned) [Compound #222, 2-(2-Ethanesulfonyl-1-hydroxy-1-methyl-ethyl)-6-trifluoromethyl-1H-indole-5-carbonitrile] | 42% |  | active |  |  | 0 @ 8000 nM % |  |
| CCSCC(O)c1cc2cc([N+](=O)[O-])c(C(F)(F)F)cc2[nH]1 (stereo not shown) [compound 158] | 62% |  | inactive | 56% | 3% and 2% |  |  |
| CC(O)(CSc1ccc(N)cc1)c1cc2cc(Cl)c(C(F)(F)F)cc2[nH]1 (stereo not shown) [compound 104] | 94% | 9% | inactive |  |  |  |  |
| CC(O)(CSc1ccc([N+](=O)[O-])cc1)c1cc2cc(Cl)c(C(F)(F)F)cc2[nH]1 (stereo not shown) [compound 122] | 66% | 10% |  |  |  |  |  |
| CCSCC(C)(O)c1cc2cc(C#N)c(Cl)cc2[nH]1 (stereo not shown) [compound 225] | 82% | 1% |  |  |  |  |  |
| CC(O)(CSc1ccc(C(=O)O)cc1)c1cc2cc(Cl)c(C(F)(F)F)cc2[nH]1 (stereo not shown) [compound 133] | 65% | −4% |  |  |  |  |  |
| CSCC(C)(O)c1cc2cc([N+](=O)[O-])c(C(F)(F)F)cc2[nH]1 (single isomer, unassigned) [compound 145] |  |  |  | 84.7% | 1% |  |  |
| CC(O)(CSc1ccc(O)cc1)c1cc2cc(Cl)c(C(F)(F)F)cc2[nH]1 (stereo not shown) [compound 120] | 86% | −5% |  |  |  |  |  |
| CC(O)(CS(C)(=O)=O)c1cc2cc(Cl)c(C(F)(F)F)cc2n1S(C)(=O)=O (stereo not shown) [compound 137] | 73% | 0% |  |  |  |  |  |
| CCSCC(C)(O)c1cc2cc(Cl)ccc2n1S(C)(=O)=O (racemic) [compound 154] |  | 2% |  | 50% |  |  | 7% |
| COc1ccc(S(=O)(=O)CC(C)(O)c2cc3cc(Cl)c(C(F)(F)F)cc3n2S(C)(=O)=O)cc1 (stereo not shown) [compound 128] | 21% | −4% |  |  |  |  |  |
| CC(O)(CS(=O)(=O)c1ccc(O)cc1)c1cc2cc(Cl)c(C(F)(F)F)cc2[nH]1 (stereo not shown) [compound 121] | 72% | −4% |  |  |  |  |  |
| CC(O)(CSc1ccc(C(=O)O)cc1)c1cc2cc(Cl)c(C(F)(F)F)cc2n1S(C)(=O)=O (stereo not shown) [compound 132] | 8.7% | −5% |  |  |  |  |  |
| CC(O)(CS(C)(=O)=O)c1cc2cc([N+](=O)[O-])c(C(F)(F)F)cc2[nH]1 (stereo not shown) [compound 148] |  | 0% |  | 32% |  |  |  |
| CC(O)(CS(C)(=O)=O)c1cc2cc([N+](=O)[O-])c(C(F)(F)F)cc2[nH]1 (stereo not shown) [compound 147] |  | 0% |  | 6.1% |  |  |  |
